In patent US11897862B2 (Gilead Sciences, Inc., priority 2022, dated 2024):

Key:
Type in all cases: cell-based
IKZF1 = target: T1, IKZF1 (Homo sapiens, UniProt Q13422+Q96SW2); assay: HEK293 HiBiT in vitro degradation of IKZF1; conditions: for Dmax: HEK293, HEK293 HiBiT; for Dmax / IKZF1 Dmax: maximum degradation at the highest concentration tested; for DC50 / IKZF1 Dmax: HEK293 HiBiT; for DC50: 18-24 hr incubation, normalized to DMSO control, read-out: IKZF1 EC50
T1 construct: expressed in transfected cells
Procedure, shortened: (§1)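 Cellular target level is measured as luminescence from an 11-residue HiBiT tag fused via a linker to the C-terminus of IKZF1, IKZF2 or SALL4 in stable Flp-In T-REx HEK293 pools. Reporter expression is induced overnight with doxycycline ([…] final), and compounds act for 18-24 h before lytic detection.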

IKZF2 [1] = target: T2, IKZF2 (Homo sapiens, UniProt Q96SW2+Q9UKS7); assay: Human whole blood IKZF2 degradation (flow cytometry, CD4/CD25/Foxp3+ Treg cells); design: endogenous in cells; conditions: 24 hrs incubation, IKZF2 MFI in CD4/CD25/Foxp3+ Treg cells, flow cytometry; for DC50: read-out: IKZF2 EC50
Method: In vitro IKZF2 potency was assessed in human whole blood using a fluorescence activated cell sorting assay. 50 μL of freshly collected blood from healthy human volunteers was incubated with Immunocult CD3/CD28 activator (Stemcell Technologies) and solution of testing compounds (serially-diluted) for 24 hrs hours at 37° C. in 384 well plates. The treated red blood cells were removed by adding lysis buffer (BD cat #558049) then the cells were fixed, permeabilized, and stained with anti-CD4 (BD cat #564419), anti-Foxp3 (Invitrogen cat #48-4777-42), anti-IKZF1 (Cell Signaling Tech. cat #33462S), and anti-IKZF2(Cell Signaling Tech. cat #65432S) antibodies. The median fluorescent intensity (MFI) of IKZF2 signal from CD4/CD25/Foxp3+ Treg cells and MFI of IKZF1 signal from CD4+ T cells were quantified in the same samples by flow cytometry using an Attune instrument. EC50 and Dmax of each compound was determined by plotting the MFI and DMSO treated wells were used as control. Asterisks (*) indicate examples for which data represents an average of n≥3 repeat experiments.
Target sequence in this assay (Q9UKS7 whole entry): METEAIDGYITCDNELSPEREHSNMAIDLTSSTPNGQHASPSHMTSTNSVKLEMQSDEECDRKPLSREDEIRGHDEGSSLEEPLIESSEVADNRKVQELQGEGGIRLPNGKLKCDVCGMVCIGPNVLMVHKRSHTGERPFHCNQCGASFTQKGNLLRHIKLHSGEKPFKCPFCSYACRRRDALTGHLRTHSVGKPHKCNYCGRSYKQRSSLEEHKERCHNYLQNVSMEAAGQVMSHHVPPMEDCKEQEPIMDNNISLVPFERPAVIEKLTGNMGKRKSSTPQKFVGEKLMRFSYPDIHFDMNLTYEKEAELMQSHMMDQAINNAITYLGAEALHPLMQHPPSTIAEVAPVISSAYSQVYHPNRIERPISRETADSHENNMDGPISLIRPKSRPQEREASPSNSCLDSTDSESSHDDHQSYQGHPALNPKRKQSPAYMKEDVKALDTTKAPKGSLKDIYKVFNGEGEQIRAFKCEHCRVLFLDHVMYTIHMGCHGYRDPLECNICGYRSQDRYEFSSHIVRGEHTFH
Target sequence in this assay (Q96SW2 whole entry): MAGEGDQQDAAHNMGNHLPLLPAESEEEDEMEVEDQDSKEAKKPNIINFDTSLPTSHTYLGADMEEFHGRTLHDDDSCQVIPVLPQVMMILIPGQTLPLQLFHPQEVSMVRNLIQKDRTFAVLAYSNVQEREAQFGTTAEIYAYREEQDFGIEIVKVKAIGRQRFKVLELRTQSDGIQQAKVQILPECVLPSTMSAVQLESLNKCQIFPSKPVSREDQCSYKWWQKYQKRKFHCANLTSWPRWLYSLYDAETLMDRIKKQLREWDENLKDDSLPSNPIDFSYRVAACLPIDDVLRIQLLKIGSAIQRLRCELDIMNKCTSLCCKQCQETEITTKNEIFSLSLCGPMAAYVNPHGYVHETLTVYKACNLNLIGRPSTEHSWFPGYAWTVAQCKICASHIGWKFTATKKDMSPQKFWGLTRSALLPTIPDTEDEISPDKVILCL
Target sequence in this assay (Q16531 whole entry partner): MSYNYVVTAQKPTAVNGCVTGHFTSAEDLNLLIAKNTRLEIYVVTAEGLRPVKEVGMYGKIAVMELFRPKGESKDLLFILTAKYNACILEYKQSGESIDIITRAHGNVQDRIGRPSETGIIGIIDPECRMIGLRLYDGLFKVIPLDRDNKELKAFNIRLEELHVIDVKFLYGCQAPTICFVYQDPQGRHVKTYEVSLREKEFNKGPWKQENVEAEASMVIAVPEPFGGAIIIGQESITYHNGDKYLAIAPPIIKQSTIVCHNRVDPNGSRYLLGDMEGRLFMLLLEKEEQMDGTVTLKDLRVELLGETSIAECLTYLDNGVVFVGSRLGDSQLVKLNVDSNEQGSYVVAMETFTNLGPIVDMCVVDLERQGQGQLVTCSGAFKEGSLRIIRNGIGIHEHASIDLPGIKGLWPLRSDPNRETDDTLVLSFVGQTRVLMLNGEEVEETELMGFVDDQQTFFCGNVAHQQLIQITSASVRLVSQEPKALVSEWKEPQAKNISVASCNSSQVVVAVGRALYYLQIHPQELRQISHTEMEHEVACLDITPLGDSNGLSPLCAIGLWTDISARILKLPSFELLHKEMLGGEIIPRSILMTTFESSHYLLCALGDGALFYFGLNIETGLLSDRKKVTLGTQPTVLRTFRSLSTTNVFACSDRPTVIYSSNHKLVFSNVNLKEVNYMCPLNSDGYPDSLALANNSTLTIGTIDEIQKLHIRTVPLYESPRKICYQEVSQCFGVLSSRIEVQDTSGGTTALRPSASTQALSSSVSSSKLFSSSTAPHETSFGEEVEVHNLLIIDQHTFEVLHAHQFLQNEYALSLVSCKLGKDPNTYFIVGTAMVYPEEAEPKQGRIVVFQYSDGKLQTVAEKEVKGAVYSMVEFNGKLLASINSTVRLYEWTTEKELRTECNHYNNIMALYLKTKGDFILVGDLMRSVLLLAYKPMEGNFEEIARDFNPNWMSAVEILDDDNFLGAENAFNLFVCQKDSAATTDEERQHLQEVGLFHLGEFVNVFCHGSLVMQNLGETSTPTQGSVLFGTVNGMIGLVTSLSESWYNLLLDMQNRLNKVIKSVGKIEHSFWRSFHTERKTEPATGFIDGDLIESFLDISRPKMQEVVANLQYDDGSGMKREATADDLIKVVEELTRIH

IKZF2 [2] = target: T2, IKZF2; assay: HEK293 HiBiT in vitro degradation of IKZF2; design: expressed in transfected cells; conditions: for Dmax: HEK293, HEK293 HiBiT; for Dmax / IKZF2 Dmax: maximum degradation at the highest concentration tested; for DC50 / IKZF2 Dmax: HEK293 HiBiT; for DC50: 18-24 hr incubation, normalized to DMSO control, read-out: IKZF2 EC50
Procedure, shortened: as §1
Target sequence in this assay (Q9UKS7 1-500 isoform Q9UKS7-2): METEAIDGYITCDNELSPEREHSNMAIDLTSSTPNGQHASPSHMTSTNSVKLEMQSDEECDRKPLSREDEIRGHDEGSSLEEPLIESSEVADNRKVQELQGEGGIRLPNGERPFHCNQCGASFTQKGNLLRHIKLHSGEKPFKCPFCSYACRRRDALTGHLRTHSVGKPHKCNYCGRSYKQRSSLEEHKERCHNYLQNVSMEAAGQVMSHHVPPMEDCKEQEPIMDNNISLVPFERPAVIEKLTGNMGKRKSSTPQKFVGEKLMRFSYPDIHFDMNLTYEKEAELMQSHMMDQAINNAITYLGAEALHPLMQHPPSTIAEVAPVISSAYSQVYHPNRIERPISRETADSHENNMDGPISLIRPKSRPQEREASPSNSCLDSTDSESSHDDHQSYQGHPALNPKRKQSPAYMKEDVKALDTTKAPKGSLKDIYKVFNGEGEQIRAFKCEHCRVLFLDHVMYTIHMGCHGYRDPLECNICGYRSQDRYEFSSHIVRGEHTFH
Target sequence in this assay (Q96SW2 whole entry): as the sequence (Q96SW2 whole entry) above
Target sequence in this assay (Q16531 whole entry partner): as the sequence (Q16531 whole entry partner) above

T1 sequence (Q13422 whole entry): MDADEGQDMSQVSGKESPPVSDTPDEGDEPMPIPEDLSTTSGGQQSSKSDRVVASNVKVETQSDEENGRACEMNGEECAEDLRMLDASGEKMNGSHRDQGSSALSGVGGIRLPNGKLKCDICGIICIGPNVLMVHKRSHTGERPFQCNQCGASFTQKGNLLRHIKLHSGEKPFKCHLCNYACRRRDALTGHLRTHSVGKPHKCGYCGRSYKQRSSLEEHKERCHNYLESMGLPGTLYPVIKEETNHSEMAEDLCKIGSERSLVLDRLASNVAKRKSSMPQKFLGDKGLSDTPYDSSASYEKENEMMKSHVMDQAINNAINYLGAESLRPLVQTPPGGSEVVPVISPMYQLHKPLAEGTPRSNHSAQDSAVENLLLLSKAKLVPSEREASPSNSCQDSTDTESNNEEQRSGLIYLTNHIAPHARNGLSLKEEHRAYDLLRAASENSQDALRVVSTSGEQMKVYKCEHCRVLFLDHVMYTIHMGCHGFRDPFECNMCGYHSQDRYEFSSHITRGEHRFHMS
T1 sequence (Q96SW2 whole entry): as the sequence (Q96SW2 whole entry) above
T1 sequence (Q16531 whole entry partner): as the sequence (Q16531 whole entry partner) above

Structure (SMILES) | Dmax (IKZF1) [%] | DC50 (IKZF1) [nM] | Dmax (IKZF2 [1]) [%] | DC50 (IKZF2 [1]) [nM] | Dmax (IKZF2 [2]) [%] | DC50 (IKZF2 [2]) [nM] | IKZF1 Dmax (IKZF1) [%] | IKZF2 Dmax (IKZF2 [1]) [%] | IKZF2 Dmax (IKZF2 [2]) [%]
O=C1CCC(N2Cc3c(ccc(C[C@H]4CCCC[C@@H]4NCC4COC4)c3F)C2=O)C(=O)N1 (stereo partly shown) [Example 114] | 28 | 88 | 98 | 5 | 98 | 8 |  |  | 
O=C1CCC(N2Cc3c(ccc(C[C@H]4CCCC[C@@H]4NCC4CCOCC4)c3F)C2=O)C(=O)N1 (stereo partly shown) [Example 115] | 37 | 78 | 90 | 6 | 96 | 8 |  |  | 
O=C1CCC(N2Cc3c(ccc(C[C@H]4CCCC[C@@H]4NC4CCOC4)c3F)C2=O)C(=O)N1 (stereo partly shown) [Example 117] | 46 | 39 | 92 | 1 | 97 | 2 |  |  | 
O=C1CCC(N2Cc3c(ccc(C[C@H]4CCCC[C@@H]4NC4CCOC4)c3F)C2=O)C(=O)N1 (stereo partly shown) [Example 118] |  | 57 |  | 1 |  | 2 | 44 | 91 | 97
CN(C1CCC(F)(F)CC1)[C@H]1CCCC[C@@H]1Cc1ccc2c(c1F)CN(C1CCC(=O)NC1=O)C2=O (stereo partly shown) [Example 124] |  | > 10000 | 91 | 23 | 94 | 16 |  |  | 
O=C1CCC(N2Cc3c(ccc(C[C@H]4OCCC[C@@H]4NC4CCCC4)c3F)C2=O)C(=O)N1 (stereo partly shown) [Example 148] |  | > 1000 | 92 | 6 | 94 | 7 |  |  | 
C[C@]1(O)CC[C@H](NC2CCC(F)(F)CC2)[C@@H](Cc2ccc3c(c2)CN(C2CCC(=O)NC2=O)C3=O)C1 (stereo partly shown) [Example 155] | 27 | 226 | 91 | 12 | 97 | 30 |  |  | 
COC1CCC(N[C@H]2CCCO[C@@H]2Cc2ccc3c(c2F)CN(C2CCC(=O)NC2=O)C3=O)CC1 (stereo partly shown) [Example 159] |  | > 1000 | 94 | 5 | 100 | 6 |  |  | 
CC(CC(C)(C)C)N[C@H]1CCCC[C@@H]1Cc1ccc2c(c1)CN(C1CCC(=O)NC1=O)C2=O (stereo partly shown) [Example 220] |  | > 1000 | 98 | 3 |  | 2 |  |  | 96
CC(CC(C)(C)C)N[C@H]1CCCC[C@@H]1Cc1ccc2c(c1)CN(C1CCC(=O)NC1=O)C2=O (stereo partly shown) [Example 221] |  | > 1000 |  | 4 |  | 2 |  | 101 | 98
CC1(C)CC(N[C@H]2CCCO[C@@H]2Cc2ccc3c(c2F)CN(C2CCC(=O)NC2=O)C3=O)CCO1 (stereo partly shown) [Example 222] |  | > 1000 | 95 | 6 | 96 | 18 |  |  | 
CC1(C)CC(N[C@H]2CCCO[C@@H]2Cc2ccc3c(c2F)CN(C2CCC(=O)NC2=O)C3=O)CCO1 (stereo partly shown) [Example 223] |  | > 1000 |  | 3 |  | 12 |  | 95 | 96
O=C1CCC(N2Cc3c(ccc(C[C@H]4OCCC[C@@H]4NC4CCOCC4)c3F)C2=O)C(=O)N1 (stereo partly shown) [Example 305] |  | > 1000 | 95 | 4 | 96 | 14 |  |  | 

Results, then the compound that gave them:

Dmax (IKZF1) [%] | DC50 (IKZF1) [nM] | Dmax (IKZF2 [1]) [%] | DC50 (IKZF2 [1]) [nM] | Dmax (IKZF2 [2]) [%] | DC50 (IKZF2 [2]) [nM] | IKZF1 Dmax (IKZF1) [%] | IKZF2 Dmax (IKZF2 [1]) [%] | IKZF2 Dmax (IKZF2 [2]) [%] | Structure (SMILES)
34 | 103 | 97 | 1 | 96 | 5 |  |  |  | CC1(C)CC(N[C@H]2CCCC[C@@H]2Cc2ccc3c(c2)CN(C2CCC(=O)NC2=O)C3=O)CCO1 (stereo partly shown) [Example 109]
 | 163 |  | 3 |  | 5 | 32 | 98 | 96 | CC1(C)CC(N[C@H]2CCCC[C@@H]2Cc2ccc3c(c2)CN(C2CCC(=O)NC2=O)C3=O)CCO1 (stereo partly shown) [Example 110]
54 | 46 | 92 | 2 | 98 | 2 |  |  |  | [2H]C1(N[C@H]2CCCC[C@@H]2Cc2ccc3c(c2)CN(C2CCC(=O)NC2=O)C3=O)CCC(F)(F)CC1 (stereo partly shown) [Example 119]
26 | 126 | 91 | 3 | 96 | 17 |  |  |  | O=C1CCC(N2Cc3cc(C[C@H]4CCCC[C@@H]4NC4CC5(CCOCC5)C4)ccc3C2=O)C(=O)N1 (stereo partly shown) [Example 125]
25 | 93 | 91 | 9 | 95 | 13 |  |  |  | CC(C)CCN[C@H]1CCCC[C@@H]1Cc1ccc2c(c1)CN(C1CCC(=O)NC1=O)C2=O (stereo partly shown) [Example 129]
 | > 1000 | 96 | 3 | 98 | 4 |  |  |  | CC(N[C@H]1CCCC[C@@H]1Cc1ccc2c(c1)CN(C1CCC(=O)NC1=O)C2=O)C12CC(C1)C2 (stereo partly shown) [Example 138]
33 | 74 | 94 | 5 | 95 | 5 |  |  |  | O=C1CCC(N2Cc3cc(C[C@H]4CCCC[C@@H]4NC4CC5(CCC(F)(F)CC5)C4)ccc3C2=O)C(=O)N1 (stereo partly shown) [Example 142]
23 | 60 | 98 | 3 | 97 | 3 |  |  |  | O=C1CCC(N2Cc3cc(C[C@H]4CCCC[C@@H]4NC4CCCCCC4)ccc3C2=O)C(=O)N1 (stereo partly shown) [Example 196]
 | > 1000 | 101 | 10 | 95 | 6 |  |  |  | CC(N[C@H]1CCCC[C@@H]1Cc1ccc2c(c1)CN(C1CCC(=O)NC1=O)C2=O)C1(C)CCC1 (stereo partly shown) [Example 206]
26 | 76 | 97 | 3 | 98 | 2 |  |  |  | CC1(C)CC(N[C@H]2CCCC[C@@H]2Cc2ccc3c(c2)CN(C2CCC(=O)NC2=O)C3=O)CC(C)(C)O1 (stereo partly shown) [Example 208]
22 | 65 | 98 | 3 | 96 | 5 |  |  |  | [2H]C1(N[C@H]2CCCC[C@@H]2Cc2ccc3c(c2)CN(C2CCC(=O)NC2=O)C3=O)CC(C)(C)C1 (stereo partly shown) [Example 214]
 | 85 | 89 | 2 |  | 3 | 44 |  | 97 | O=C1CCC(N2Cc3cc(C[C@H]4CCCC[C@@H]4NC4CCC(C(F)F)CC4)ccc3C2=O)C(=O)N1 (stereo partly shown) [Example 217]
 | > 1000 |  | 10 |  | 6 |  | 97 | 95 | CC(N[C@H]1CCCC[C@@H]1Cc1ccc2c(c1)CN(C1CCC(=O)NC1=O)C2=O)C1CCC1 (stereo partly shown) [Example 219]
